In patent US20080206761A1, “Ex Vivo Gene Expression in Whole Blood as a Model of Assessment of Individual Variation to Dietary Supplements” (priority 2005, published 2008):

Test system: TNFSF15 mRNA
Assay: TNFSF15 mRNA in whole blood after dietary component and heat-aggregated IgG stimulation
Type: cell-based, human
Description: The mRNA and cDNA were prepared from the whole blood that was exposed to the dietary components, as well as the whole blood which remained unexposed. In brief, home-made 96-well filterplates were placed over collection plates, and 150 μl 5 mM Tris, pH 7.4, was applied. Following centrifugation at 120×g for 1 min at 4° C., 50 μl of blood samples were applied to each well and immediately centrifuged at 120×g for 2 min at 4° C., followed by washing of each well with 300 μl PBS once with centrifugation at 2000×g for 5 min at 4° C. Then, 60 μl stock lysis buffer, containing for example 0.5% N-Lauroylsarcosine, 4×SSC, 10 mM Tris HCl, pH 7.4, 1 mM EDTA, 0.1% IGEPAL CA-630, and 1.791 M guanidine thiocyanate, supplemented with 1% 2-mercaptoethanol (Bio Rad, Hercules, Calif., USA), 0.5 mg/ml proteinase K (Pierce, Rockford, Ill., USA), 0.1 mg/ml salmon sperm DNA (5 Prime Eppendorf/Brinkmann, Westbury, N.Y., USA), 0.1 mg/ml E. coli tRNA (Sigma), a cocktail of 10 mM each of the specific reverse primers shown in Table 2, and standard RNA34 oligonucleotides, were applied to the filterplates, followed by incubation at 37° C. for 10 min. The filterplates were then placed over oligo(dT)-immobilized microplates (GenePlate, RNAture), and centrifuged at 2000×g for 5 min at 4° C. Following overnight storage at 4° C., the microplates were washed with 100 μl plain lysis buffer 3 times, followed by 150 μl of wash buffer (0.5 M NaCl, 10 mM Tris, pH 7.4, 1 mM EDTA) 3 times at 4° C. […] The Ct was determined by analytical software (SDS, ABI).
In this embodiment, heparinized whole blood of two individuals was pre-incubated with various dietary supplements at 37° C. for 30 minutes (at the same blood concentrations as in Embodiment 2), then stimulated with 1.2 μL of heat-aggregated IgG. […] The level of TNFSF3 and TNFSF15 mRNA was then assessed using the method described in Embodiment 1, with the exception that SYBR Green PCR was used to quantitate the mRNA. […]

## CC1=C(/C=C/C(C)=C/C=C/C(C)=C/CO)C(C)(C)CCC1 [VA, vitamin A]
FIG. 6, two cases, vitamin A 100 nmol/L
  effect on HAG-induced TNFSF15 expression, in words: eliminated the effect on HAG in one case (case 1)
FIG. 6, vitamin A 100 nmol/L
  baseline expression of TNFSF15, in words: decreased the baseline expression of TNFSF-15
FIG. 7 follow-up, seven cases overall, vitamin A only
  effect on HAG-induced TNFSF15 expression, in words: exhibited an inhibitory action on HAG-induced TNFSF15 expression in case 1, and in two of seven cases overall
